Data as given in US7005447B2, “Food product comprising hydroxymatairesinol” (Hormos Nutraceutical Oy Ltd., priority 1999, dated 2006).
Where two headings read alike, the source gives them in different places.

What was measured:
[1] = tested on: tert-butylhydroperoxide-induced lipid peroxidation (t-BuOOH-LP) in rat liver microsomes; test: Inhibition of tert-butylhydroperoxide-induced lipid peroxidation (t-BuOOH-LP), chemiluminescence; format: biochemical
Experimental: Inhibition of lipid peroxidation was evaluated on the basis of their potency to inhibit tert-butylhydroperoxide-induced lipid peroxidation (t-BuOOH-LP) in rat liver microsomes in vitro (Ahotupa et al. 1997). The test for the t-BuOOH-LP was carried out as follows: The buffer (50 mM sodium carbonate, pH 10.2, with 0.1 mM EDTA) was pipetted in a volume of 0.8 ml in the luminometer cuvette. Twenty microliters of diluted liver microsomes, final concentration 1.5 mg protein/ml, was added, followed by […] of luminol (0.5 mg/ml) and test chemicals. The test compounds were added to incubation mixtures in a small volume diluted in ethanol or dimethylsulphoxide (2% of incubation volume), and the lipid peroxidation potency was compared to that of the vehicle (ethanol or dimethyl sulphoxide). The reaction was initiated by 0.05 ml of 0.9 mM t-BuOOH at 33° C. Chemiluminescence was measured for about 45 min at 1 min cycles, and the area under curve (integral) was calculated. Chemiluminescence measurements were carried out using a Bio-Orbit 1251 Luminometer (Bio-Orbit, Turku, Finland) connected to a personal computer using dedicated software for the assays.

[2] = tested on: low density lipoprotein (LDL) oxidation; test: Inhibition of LDL oxidation (CuCl2-induced, absorbance at 234 nm); format: biochemical; conditions: CuCl2, 3 hrs at +37° C.; read-out: Inhibition of LDL oxidation, IC-50
Experimental: Inhibition of LDL oxidation was estimated as described by Ahotupa et al, 1996. Shortly: LDL was isolated by precipitation with buffered heparin. After resuspendation in phosphate buffer, 20 mM CuCl2 was added and the mixture was incubated for 3 hrs at +37° C. After this, LDL lipids were extracted with chloroform-methanol, dried under nitrogen, redissolved in cyclohexane and analyzed spectrophotometrically at 234 nm. The intensity of absorbance is indicative of LDL oxidation. To test the ability of different compounds to prevent LDL oxidation, the compounds were added to the incubation mixture prior addition of CuCl2. Possible interference of test compounds with the assay procedure was excluded by measuring the absorption at 234 nm before and after the incubation period.

[3] = tested on: uterine growth of immature rats; test: Immature rat uterotropic test; format: in vivo; conditions: 7 days treatment, FIG. 3
Experimental: The estrogenicity HMR was evaluated by the uterotropic assay in immature rats which was performed as described earlier (Jordan et al. 1977), with the exception of treatment time which was 7 days instead of 3 days in the reference study. The treatment time was longer because of the expected weak estrogenicity of the test compound. The treatment of immature rats with an aromatase inhibitor (MPV-2213 ad), which prevents biosynthesis of estradiol, was used as a methodological control for non-estrogen-stimulated uterus.

[4] = tested on: intact and hypoandrogenic Noble strain male rats; test: Estrogenic and antiestrogenic activity in adult male rats (intact and hypoandrogenic); format: in vivo, rat; conditions: for Body weight / Coaculating gland relative weight / Seminal vesicle relative weight / Testis relative weight / Ventral Prostate relative weight: HMR 50 mg/kg daily; for Body weight / Coaculating gland relative weight / Seminal vesicle relative weight / Testis relative weight / Ventral Prostate relative weight / Pituitary LH (μg/pit) / Serum LH / Serum testosterone / Testis testosterone (ng/testis): four weeks, mean ± SD; for Pituitary LH (μg/pit) / Serum LH / Serum testosterone / Testis testosterone (ng/testis): 50 mg/kg HMR
Experimental: Estrogenic (antiandrogenic) and antiestrogenic effects of HMR were studied in intact and hypoandrogenic Noble strain male rats (age 6–9 month), correspondingly. The chronic hypoandrogenic state with both structural and functional changes in the male reproductive tract was induced by neonatal estrogenization (diethylstilbestrol, 10.0 μg/kg body weight in rape oil s.c. on postnatal days 1–5). These changes are known to be partly reversible by aromatase inhibitor treatment consisting daily dose of MPV-2213 ad 10–30 mg/kg body weight (Streng et al. unpublished observations).
Twelve of both intact and hypoandrogenic animals were cavaged in daily dosage of HMR 50 mg/kg body weight in rape oil. Another twelve animals from both animal models were cavaged with rape oil only as a placebo treatment. After four-week treatment the animals were sacrificed. The weights of testis and accessory sex glands (ventral prostate, seminal vesicles and coagulating gland) were measured. Serum and testis testosterone and pituitary and serum luteinizing hormone (LH) levels were measured by immunoassays (Haavisto et al. 1993).

[5] = Analysis of metabolites from rat urine after different doses of HMR (GC-MS); format: in vivo; conditions: 24 hour urine
Experimental: Ten Sprague—Dawley male rats (age 4 month) were used to study the metabolism of HMR in vivo. Animals were housed in pairs with 12 h light:dark cycle and had free access to water and soy-free basal diet (SDS, Whitham Essex, England) during the metabolism study.
Rats were cavaged with HMR dissolved in 10% ethanol in PEG in doses 3, 15, 25 and 50 mg/kg body weight once a day for two days. After second cavaging the 24 hour urine was collected in metabolic cages in collection jars containing 120 μl 0.56 M ascorbic acid and 120 μl 0.15 M Na-azide as preservatives. The centrifuged urine volumes were measured and stored in −20° C. For pretreatment 750 μl 0.2 M acetate buffer (pH 4.0±0.1) was added to 3.0 ml thawed urine aliquots. Sep-Pak C18 columns (100 mg silica based resin/column) were used for urine extractions. Columns were preconditioned with 3.0 ml H2O, 3.0 ml methanol and 3.0 ml acetate buffer. After urine had filtered through the column and washed with 3.0 ml of acetate buffer polyphenolics were eluted with 3.0 ml methanol. The eluate was evaporated to dryness under nitrogen in +45° C. water bath and dryed residues were redissolved in 3.0 ml of 0.2 M acetate buffer. 30 μl Helix pomatia enzyme mix was added and the solutions were incubated in +37° C. to hydrolyze both glucuronides and sulfates. 300 μl of flavone stock solution (100 μg/ml in EtOH) was added into hydrolyzed samples. The samples were extracted in C-18 columns and evaporated to dryness as described above and stored in −20° C. until analyzed with GC-MS.
The evaporated urine samples were dissolved in pyridine, and silylated by adding BSTFA:TMCS (10:1) silylation reagent. The GC-MS analyses of the silylated samples were performed with an HP 6890-5973 GC-MS instrument. The GC column was an HP-1 crosslinked methyl polysiloxane column (15 m×0.25 mm i.d., 0.25 μm film thickness). Helium was used as carrier gas at a flow of 1 ml/min. […] The quantitative calculations were based on uncorrected peak areas of target components relative to the internal standard.

[6] = control and hypoandrogenic animals, 4-week treatment, versus placebo

IC50 ([1]; Table 3 comparison with known antioxidants, read-out: Inhibition of lipid peroxidation, IC-50): 60 nM
IC50 ([1]; lipid peroxidation inhibition test, rat liver microsomes, Table 2, read-out: Antioxidative capacity (t-BuOOH-LP) IC50): 80 nM
IC50 [2]: 2000 nM
Main excreting metabolite in urine ([5]; male rats, 3, 15, 25 and 50 mg/kg once a day for two days, FIG. 5): enterolactone
Relation between doses of HMR and amounts of urinary enterolactone ([5]; male rats, 3 to 50 mg/kg): linear correlation
Unmetabolized HMR and other metabolites (enterodiol and 7-hydroxyenterolactone) found in urine ([5]; male rats, unchanged when daily dose increased): Only minute amounts
SMILES: COc1cc(CC2C(=O)OCC2C(O)c2ccc(O)c(OC)c2)ccc1O (stereo not shown) [HMR, hydroxymatairesinol]
Antiestrogenic effect (reduction of uterine weight gain) [3]: no antiestrogenic effect
Estrogenic effect on uterine weight gain [3]: no significant estrogenic effect
Changes in testosterone or LH concentrations [4, 6]: no significant changes
Changes in the weights of accessory sex glands and testis [4, 6]: no significant changes
Body weight ([4]; hypoandrogenemic (neonatally estrogenized) male rats): 455 ± 36 g
Coaculating gland relative weight ([4]; hypoandrogenemic male rats): 70 ± 30 mg/kg body weight
Seminal vesicle relative weight ([4]; hypoandrogenemic male rats): 266 ± 49 mg/kg body weight
Testis relative weight ([4]; hypoandrogenemic male rats): 3276 ± 327 mg/kg body weight
Ventral Prostate relative weight ([4]; hypoandrogenemic male rats): 378 ± 198 mg/kg body weight
Pituitary LH (μg/pit) ([4]; hypoandrogenic male rats): 7.530 ± 2.286 μg/pit
Serum LH ([4]; hypoandrogenic male rats): 0.854 ± 0.333 ng/mL
Serum testosterone ([4]; hypoandrogenic male rats): 0.939 ± 0.431 ng/mL
Testis testosterone (ng/testis) ([4]; hypoandrogenic male rats): 48.0 ± 15.2 ng/testis
Pituitary LH (μg/pit) ([4]; intact male rats): 6.838 ± 2.061 μg/pit
Serum LH ([4]; intact male rats): 1.088 ± 0.352 ng/mL
Serum testosterone ([4]; intact male rats): 2.770 ± 1.421 ng/mL
Testis testosterone (ng/testis) ([4]; intact male rats): 112.9 ± 58.5 ng/testis
Body weight ([4]; intact male rats): 447 ± 38 g
Coaculating gland relative weight ([4]; intact male rats): 204 ± 48 mg/kg body weight
Seminal vesicle relative weight ([4]; intact male rats): 419 ± 59 mg/kg body weight
Testis relative weight ([4]; intact male rats): 4223 ± 304 mg/kg body weight
Ventral Prostate relative weight ([4]; intact male rats): 938 ± 148 mg/kg body weight
